# Assay: Human HepG2 cell viability assay in 384 well format
# Format: toxicity, cell-based
# Design: dose 125 nL, time 70.5 hour; concentration not given beside the values
# Details: HepG2 cells, read-out: Inhibition
row,SMILES,cytotoxicity at 70.5 h [%]
1,O=C(c1cnccn1)N1CCCC(Cn2cc(C3CC3)nn2)C1 (configuration not stated),15.7
2,Cc1noc(C)c1CCC(=O)N1CCCC(n2ccnc2C)C1 (configuration not stated),3.81
3,CC(Cn1cccn1)NC(=O)NCc1cccnc1OC1CCCC1 (configuration not stated),-12.8
4,Cn1nc2c(cc1=O)CN(Cc1nnc(C3CC3)o1)CC2,19.5
5,CC(C)c1cc(-c2cnn(C)c2C2CC2)c(C#N)c(N)n1,-0.849
6,Cc1cc(CC(=O)N2CCN(C)[C@@H]3CS(=O)(=O)C[C@@H]32)ccc1F,-4.31
7,Cc1ccc(CN2C[C@@H](c3ccccc3)[C@@]3(CCNC3=O)C2)o1,2.86
8,Cc1cnccc1CN(C)C(=O)C(C)(C)NC(=O)c1cccs1,0.902
9,COc1ccc2oc(C(C)NC(=O)NCC(C)(C)C(N)=O)c(C)c2c1 (configuration not stated),23.4
10,Cn1nccc1C(=O)N1CCN(C(=O)C2CC2)[C@@H]2CS(=O)(=O)C[C@@H]21,-5.45
11,CCNC(=O)NC(=O)C(C)Nc1ccccc1OCCOC (configuration not stated),-11.3
12,Cn1c(SCC(O)COCc2ccccc2Cl)nnc1C1CC1 (configuration not stated),-8.57
13,CCN(CC)S(=O)(=O)NC(C)C(=O)N(C)C (configuration not stated),0.169
14,Cc1nc(O)cc(CN2CCC=C(CN(C)C(=O)c3ccco3)C2)n1,-14.2
15,COc1c(CNCc2ccc(C(=O)N(C)C)cc2)c(C)nn1C,0.637
16,COCC(NC(=O)c1cc(C)n(C)n1)c1cccc(C(F)(F)F)c1 (configuration not stated),4.67
17,CCc1nccn1C1CCCN(C(=O)CCc2nc(C(C)C)no2)C1 (configuration not stated),-1.73
18,CCOCc1nc2c(c(N3CCCn4nc(C)cc4C3)n1)CCNCC2,23.6
19,Cc1ccc2c(c1)c(CNC(=O)C1CC(=O)N(CCN(C)C)C1)nn2C (configuration not stated),-0.487
20,O=C1CCC(CCC(=O)N2CCCC2c2nccs2)=NN1 (configuration not stated),8.6
21,CCN1CCN2CCCN(S(=O)(=O)c3ccc(S(C)(=O)=O)cc3)C2C1=O (configuration not stated),-7.94
22,COc1ccc(C(=O)NCCNC(=O)c2cncnc2C)cc1,-8.47
23,N#Cc1ccc(F)c(CNC(=O)NCCC(=O)NC2CCCC2)c1,-3.12

row,SMILES,cytotoxicity at 70.5 h [%]
1,Cc1cc(C)nc(NC2CC(=O)N(C)C2)n1 (configuration not stated),-8.75
2,O=C(C1COc2ccccc2O1)N1Cc2cnn(CCO)c2C1 (configuration not stated),-3.6
3,CC(C)C[C@H](NC(=O)N1CCC(Cc2ccccc2)CC1)C(=O)O,-5.66
4,CC(C)c1nccc([C@H]2C[C@@H]3CCN(Cc4ccoc4)C[C@H]3O2)n1,-4.74
5,c1ccc(-c2cc(NCCCC3CCOC3)n3nccc3n2)cc1 (configuration not stated),-0.688
6,CC(C)NC(=O)c1ccc2c(c1)C1(CCN(C)CC1)C(=O)N2,2.1
7,Cc1cc(CN(C)C(=O)C(c2ccccc2F)N(C)C)ccn1 (configuration not stated),-7.87
8,CCOc1cc(C(=O)N(C)C)ccc1NC(=O)C(C)c1ccsc1 (configuration not stated),26
9,COC(=O)c1ccc(CNC(C)c2ccc(S(C)(=O)=O)cc2)cc1 (configuration not stated),-1.14
10,Cc1ccc(CC2COCCN(Cc3ccccc3)C2)nc1 (configuration not stated),-2.48
11,Cc1nn(C)c(C)c1NC(=O)CNC(c1ccccc1)C1CCC1 (configuration not stated),-4.47
12,CC(=O)NCCNC(=O)c1ccc(C)c(-n2cccc2)c1,-10.2
13,FC(F)(F)C1CCc2nnc(CNCc3cccs3)n2C1 (configuration not stated),24.7
14,Cc1cccc(CN2CCc3c(COCC(=O)N(C)C)nn(C)c3C2)n1,0.676
15,COc1ccccc1NC(=O)c1cc2c([nH]c1=O)CCCC2=O,-11.1
16,O=C(Cc1ccsc1)N1C[C@@H]2OCCN(CC3CC3)[C@@H]2C1,1.39
17,CN1CCN(Cc2ccccc2Oc2cncc(C(N)=O)n2)CC1,-3.62
18,CCCS(=O)(=O)NC(C)C(=O)NCc1ccc(N2CCCC2)nc1 (configuration not stated),-7.44
19,c1ccc2sc(CN3CCOC(Cn4cccn4)C3)nc2c1 (configuration not stated),24.8
20,Cc1cc(C(=O)N(C)Cc2cccs2)nc(N2CCCCC2)n1,-6.38
21,Cc1occc1C(=O)N1CCC2(CCCN(c3ncc(F)cn3)C2)C1 (configuration not stated),-1.51
22,COc1ccc(C(=O)Nc2cccc(C(N)=O)c2)c(OC)n1,9.82
23,COc1cccc2sc(N3CCN(C(=O)c4cc(C)on4)CC3)nc12,-2.51

row,SMILES,cytotoxicity at 70.5 h [%]
1,C[C@H]1C[C@H]2CN(C(=O)C3=CCCC3)CC[C@H]2O1,-9.81
2,CC(C(=O)Nc1cc(F)ccc1F)N1CCN(Cc2ncc[nH]2)CC1 (configuration not stated),42.5
3,CNC(=O)CC1c2cccnc2C(=O)N1Cc1ccccc1 (configuration not stated),-4.81
4,CCN1CCC(CNC(=O)C(c2ccc(F)cc2)N(C)C)(N(C)C)CC1 (configuration not stated),-6.97
5,CC(C)(C)NC(=O)C1CSCN1S(=O)(=O)c1cccc(F)c1 (configuration not stated),-9.43
6,O=C(Cn1ccc2c(Cl)cccc21)N1CCCC1,-1.08
7,COc1ccccc1OCc1cc(C(=O)N2CCCCCC2CO)n[nH]1 (configuration not stated),8.73
8,O=C(C[C@@H]1COC[C@H]2CN(CC3CC3)C[C@@H]12)NCc1cccnc1,-11.6
9,CNCC(=O)N1CCC(c2cccc(Oc3ccccc3)n2)CC1,-7.76
10,COC[C@H]1CC[C@H]2[C@H](CCN2S(=O)(=O)Cc2ccccc2)O1,-4.05
11,CCCN(CC1COc2ccccc2O1)C(=O)CCn1cncn1 (configuration not stated),-1.87
12,CC(C)Oc1ccc(C(=O)Cn2cnnc2[S+](C)[O-])cc1 (configuration not stated),-7.07
13,Cn1cc(CN2CCCC(c3nccnc3-c3cccc(F)c3)C2)cn1 (configuration not stated),16.1
14,Cc1nn(C)cc1-c1ccnc(N(C)Cc2ccc(F)cc2)n1,-4.85
15,c1ccc2c(c1)OCCCC2NCc1nnc2n1CCCCC2 (configuration not stated),-2.04
16,O=C(CNC(=O)C1CC1)NCc1ccc(Cl)s1,1.44
17,CC(C#N)CNC(=O)Nc1ccc(Br)cc1 (configuration not stated),2.54
18,CC(CC(=O)N1CCN(c2cnccn2)CC1)c1ccc(F)cc1 (configuration not stated),0.499
19,N#CCCSc1sc2c(O)cc(O)nc2c1C#N,13.6
20,O=C(CN1CCS(=O)(=O)CC1)NCc1ccccc1F,-8.79
21,COCCN1CCCC2(CCN(c3cc(C)c(C#N)c(C)n3)C2)C1=O (configuration not stated),14.9
22,CC(=O)N1N=C(c2ccco2)OC1C(=O)NCCc1ccc(F)cc1 (configuration not stated),0.102
23,Cc1cnc(N2CCC3(CC2)CC3CN(C)Cc2cccnc2)nc1 (configuration not stated),2.52

row,SMILES,cytotoxicity at 70.5 h [%]
1,O=C(c1ccc2nccnc2c1)N1C[C@@H](CN2CCCC2)[C@@H](CO)C1,-5.28
2,Cc1ccc(CCC(=O)N2CCCC(n3cncn3)C2)c(C)c1 (configuration not stated),-3.58
3,O=c1[nH]c(NCCCO)nc2c1C1(CCCC1)Cc1ccccc1-2,-23.5
4,CC(C)CN(Cc1ccc(O)c(C(=O)O)c1)Cc1ccccn1,5.47
5,Cc1cccc(S(=O)(=O)N2C[C@@H]3C[C@@H](c4nc(C)no4)O[C@@H]3C2)c1,-3.34
6,CC(=O)N1CCc2nc(C3CCN(c4ncccn4)C3)ncc2C1 (configuration not stated),-0.395
7,CCOC(=O)C1CN(S(=O)(=O)CC)Cc2ncn(CC)c21 (configuration not stated),0.473
8,COCCN1CCc2ccc(=O)n(Cc3csc(C)n3)c2CC1,-6.35
9,CCC(=O)Nc1ccc(C(C)Nc2nc3c(cnn3C)c(=O)[nH]2)cc1 (configuration not stated),-5.84
10,CC(C)c1noc(CN2CCOCC2C)n1 (configuration not stated),-4.78
11,COCc1cccc(NC(C(N)=O)c2ccc(Br)cc2)c1 (configuration not stated),-9.42
12,Cc1cnc(N2CCC(c3ccncc3)CC2)nc1-c1ccnn1C,-12.9
13,O=C1Nc2ccccc2CNC12CCN(CC1CC1)CC2,-9.09
14,CN(Cc1ccccc1CN1CCCC1)C(=O)c1c[nH]c(=O)[nH]1,-10.8
15,Cn1c(C(=O)NC2CC2)nc2c1CCN(c1ncccn1)C2,-4.38
16,Cc1cc(C)n(C2CCCN(C(=O)c3c(C)noc3C)C2)n1 (configuration not stated),-7.4
17,COc1ccccc1CN1CC(OC)CN(C(=O)OCC(C)C)CC1=O (configuration not stated),-3.02
18,Cc1cc(=O)c2ccccc2n1CC1CCCN(C)C1 (configuration not stated),31.9
19,Cn1cc(CNS(=O)(=O)c2cc(F)ccc2F)cn1,-6.49
20,COc1ccccc1NC(=O)CC(C)NCc1scnc1C (configuration not stated),-4.53
21,COCC1c2nnn(CC3CC3)c2CCN1C(=O)N1CCCC1 (configuration not stated),14.1
22,CCn1ncc(CN2CCCC(C(=O)c3ccc(Cl)cc3)C2)c1C (configuration not stated),-6.46
23,c1cc(CNCC2Cn3nncc3CO2)cs1 (configuration not stated),-6.68

row,SMILES,cytotoxicity at 70.5 h [%]
1,Nc1ncc(-c2ccc(NC(=O)[C@@H]3CCCCN3)cc2)cn1,2.01
2,COc1c(CNC2CCN(C(C)(C)C)CC2)c(C(C)C)nn1C,3.99
3,CCS(=O)(=O)N1C[C@@H](O)[C@H](N(C)Cc2ccc(F)cc2)C1,0.693
4,NC(=O)C1CN(C(=O)Cc2cccnc2)CCN(C2CCOCC2)C1 (configuration not stated),0.12
5,N#Cc1cc(NC(=O)c2ccsc2)ccc1N1CCC(O)CC1,-11.8
6,COCCCNC(=O)Nc1cccc2c1CCN(S(C)(=O)=O)C2,21.4
7,O=C(N[C@@H]1CN(Cc2cccs2)[C@@H]2COC[C@@H]21)C1CCC1,-4.79
8,CCCNC(=O)c1cc(-c2ccn(C(C)C)n2)n2ccccc12,-7.13
9,Cn1cncc1-c1nnc([C@H]2CCN(Cc3ncc[nH]3)C2)o1,2.99
10,Cc1cccc(CO[C@@H]2CC[C@H]3[C@H]2OCCN3Cc2ccoc2)n1,-11.3
11,Cn1nnc2c1C(COCc1cccnc1)CN(Cc1ccoc1)C2 (configuration not stated),-16.5
12,O=S(=O)(N(Cc1ccccn1)C1CC1)N1CCCC1c1ccco1 (configuration not stated),-8.96
13,COc1cc(C)sc1C(=O)NCCC(=O)N(C)Cc1ccccc1,-3.28
14,COCc1nc(C(=O)NS(=O)(=O)c2c(C)c(C)cc(C)c2C)cs1,2.47
15,COc1ccc(NC(=O)CCSc2ccc3nncn3n2)c(OC)c1,-11.8
16,COc1cc2c(cc1OC)C(=O)C(Sc1nnnn1C)C2 (configuration not stated),-18.6
17,COCCN1CC[C@H](OC)[C@@H]1Cc1ccccc1,-0.421
18,CN(Cc1n[nH]c2c1CCCC2)c1nc(C2CC2)nc2c1CCNCC2,-1.06
19,O=C(C1CCCC1)N1CCC(c2n[nH]c3nccnc23)CC1,-1.92
20,Cn1cc(N2CC3(CCN(CC4CC4)CC3)OCC2=O)cn1,-12.5
